Assay results as given in patent EP0362382A1, “METHOD OF STERILIZING PLANT POLLEN” (VSESOJUZNY NAUCHNO-ISSLEDOVATELSKY INST. SELSKOKHOZYAISTV. …, priority 1988, dated 1989).

Test system: Winterweizen
Assay: Field test of gametocidal activity (sterilisation of anthers), winter wheat
Assay type: in vivo
Conditions: Gordeiforme 12303; V. Periode der Organogenese; 2%ige wäßrige Emulsion; 16 kg/ha
Description: (§1) Die gametozide Aktivitat der erfindungsgemäßen Sterilisationsmittel war im Feldversuch in verschiedenen bodenklimatischen Zonen mit Teilstücken von 10 m^2 Größe in drei- bis viermaliger Wiederholung festgestellt. Jedes Sterilisationsmittel wurde mindenstens 5 Jahre lang geprüft.
(§2) Die Entwicklung der Perioden der Organogenese wird zytologisch überwacht. Die Behandlung von Pflanzen mit dem Sterilisationsmittel erfolgt am Anfang der fünften Periode der Organogenese nach Kupermann.
(§3) Mit dem Ährenschieben verwirklicht man die Isolierung von Hauptähren und anderen Stockwerken in Pergamentbeuteln. Bei Weizen und Tritikale werden Einzelisolatoren benutzt. Bei Roggen schließt man je Ähre 5 bis 7 verschiedene nebeneinander befindliche Pflanzen unter einen gemeinsamen Isolator ein. Bei Hierse wird jede Rispe getrennt isoliert. Der Sterilitätsprozentsatz (X) für Weizen, Roggen, Tritikale und Hirse wird nach der Formel [formula] ermittelt.
(§4) Die Kornzahl in nicht isolierten Ähren von Kontrollpflanzen wird bedingt für 100 % Ansetzen bei freier Bestäubung angenommen.
(§5) Um zuverlässige Angaben zu erhalten, verwendet man 20 bis 25 Isolatoren jeder Wiederholung für Weizen und Tritikale, 10 .bis 15 Isolatoren jeder Wiederholung für Roggen und Hirse.
Pflanzen des Winterweizens Sorte Mironowskaja 808 werden in der V. Periode der Organogenese durch Zerstäubung der 2%igen wäßrigen Emulsion der δ, δ' -Thiodivaleriansäure mit Hilfe einer Rückenspritze behandelt. Als Emulgiermittel wird 0,1 Masse% Kalziumalkylbenzalsulfonat mit 12 bis 14 Kohlenstoffatomen hinzugefügt. Als Adjuvans führt man in die Emulsion 0,01 Masse% Dimethylsulfoxid ein. Der Verbrauch an Präparat beträgt 20 kg/ha. Als Kontrolle dienen Pflanzen, behandelt mit einem Verdünner ohne Sterilisationsmittel. Die Ergebnisse sind in der Tabelle 1 angegeben. […] Periode der Organogenese erhalten.
Der Prozeß erfolgt analog zu dem im Beispiel 1 bescnriebenen. Als Sterilisationsmittel benutzt man 2%ige wäßrige Emulsion von Natriumsalz der δ, δ'-Thiodivaleriansäure, δ, δ' -Sulfonyldivaleriansäure, Natriumsalz der δ, δ' -Sulfonyldivaleriansäure, Kaliumsalz der δ, δ'--Sulfonyldivaleriansäure, Bis(di-n-butyläther) der δ, δ'--Thiodivaleriansäure, 4-Karboxybutyldezylsulfid bzw.
Pflanzen des Winterweizens Sorte Korall werden in der V. Periode der Organogenese (nach Kupermann) mit 2%iger wäßriger Emulsion von Bis(2-äthylhexyläther) der δ, δ' --Thiodivaleriansäure, 4-Karboxybutyldezylsulfid bzw. Bis(di--n-butyläther) der δ, δ' -Thiodivalerianqäure behandelt. Die Emulsion enthält 0,1 Masse% Kalziumalkylbenzolsulfonat mit 12 bis 14 Kohlenstoffatomen und 0,01 Masse% Dodezylsulfat. Der Verbrauch an Präparat beträgt 12 kg/ha. Als Kontrolle dienen Pflanzen, behandelt mit einem Verdünner ohne Sterilisationsmittel. Die Prüfergebnisse sind in der Tabelle 2 angegeben.
Pflanzen des Winterweizens Gordeiforme 12303 werden in der V. Periode der Organogenese (nach Kupermann) mit 2%iger wäßriger Emulsion von 4-Karboxybutyldezylsulfid, Bis(2-äthylhexyläther) der δ, δ' -Thiodivaleriansäure, δ, δ' -Sulfonyldivaleriansäure behandelt. Die Emulsion enthält als Emulgiermittel 0,1 Masse% Kalziumalkylbenzolsulfonat mit 12 bis 14 Kohlenstoffatomen und 0,01 Masse% Dimethylformamid. Der Verbrauch an Präparat beträgt 16 kg/ha. Als Kontrolle dienen Pflanzen, behandelt mit einem Verdünner ohne Sterilisationsmittel.

Question: How did the “Anzahl von Körnern der Ähre bei freier Bestäubung” value turn out when `CCCCCCCCCCSCCCCC(=O)O` [Beispiel 12, 4-Karboxybutyldezylsulfid] was run?
Answer: The value was 21,6.

Question: What about the “Anzahl von Körnern der Ähre im Isolator” value of the same compound?
Answer: Its value is 0,0.

Question: And the “Prozentsatz der Sterilität” value?
Answer: Its value is 100,0%.

Question: And the “Prozentsatz des Ansetzens von Körnern bei freier Bestäubung” value?
Answer: Its value is 74,2%.

Question: For `CCCCC(CC)COC(=O)CCCCSCCCCC(=O)OCC(CC)CCCC` (stereo not shown) [Beispiel 13, Bis(2-äthylhexyläther) der δ, δ' -Thiodivaleriansäure], which “Anzahl von Körnern der Ähre bei freier Bestäubung” value is on record?
Answer: The value was 25,3.

Question: And the “Anzahl von Körnern der Ähre im Isolator” value?
Answer: Its value is 0,0.

Question: And the “Prozentsatz der Sterilität” value?
Answer: The value was 100,0%.

Question: And the “Prozentsatz des Ansetzens von Körnern bei freier Bestäubung” value?
Answer: The value was 86,9%.

Question: Which results are given for `O=C(O)CCCCS(=O)(=O)CCCCC(=O)O` [Beispiel 14, δ, δ' -Sulfonyldivaleriansäure]?
Answer: Anzahl von Körnern der Ähre bei freier Bestäubung: 23,6; Anzahl von Körnern der Ähre im Isolator: 0,1; Prozentsatz der Sterilität: 99,7%; Prozentsatz des Ansetzens von Körnern bei freier Bestäubung: 81,1%

Same assay, conditions: Sorte Korall; V. Periode der Organogenese; 2%ige wäßrige Emulsion; 12 kg/ha

Question: `CCCCC(CC)COC(=O)CCCCSCCCCC(=O)OCC(CC)CCCC` (stereo not shown) [Beispiel 9, Bis(2-äthylhexyläther) der δ, δ' --Thiodivaleriansäure] was tested. Which “Anzahl von Körnern der Ähre bei freier Bestäubung” value did it give?
Answer: Its value is 30,8.

Question: And the “Anzahl von Körnern der Ähre im Isolator” value?
Answer: Its value is 0,0.

Question: And the “Prozentsatz der Sterilität” value?
Answer: Its value is 100,0%.

Question: What about the “Prozentsatz des Ansetzens von Körnern bei freier Bestäubung” value of the same compound?
Answer: Its value is 95,1%.

Question: `CCCCCCCCCCSCCCCC(=O)O` [Beispiel 10, 4-Karboxybutyldezylsulfid] was tested. Which “Anzahl von Körnern der Ähre bei freier Bestäubung” value did it give?
Answer: The value was 29,1.

Question: What about the “Anzahl von Körnern der Ähre im Isolator” value of the same compound?
Answer: The value was 0,1.

Question: And the “Prozentsatz der Sterilität” value?
Answer: The value was 99,5%.

Question: What about the “Prozentsatz des Ansetzens von Körnern bei freier Bestäubung” value of the same compound?
Answer: The value was 89,8%.

Question: “Bis(di--n-butyläther) der δ, δ' -Thiodivalerianqäure [Beispiel 11]” was tested. Which “Anzahl von Körnern der Ähre bei freier Bestäubung” value did it give?
Answer: The value was 30,2.

Question: And the “Anzahl von Körnern der Ähre im Isolator” value?
Answer: The value was 0,1.

Question: And the “Prozentsatz der Sterilität” value?
Answer: Its value is 99,5%.

Question: What about the “Prozentsatz des Ansetzens von Körnern bei freier Bestäubung” value of the same compound?
Answer: Its value is 93,2%.

Same assay, conditions: Sorte Mironowskaja 808; V. Periode der Organogenese; 2%ige wäßrige Emulsion; 20 kg/ha

Question: Which “Anzahl von Körnern der Ähre bei freier Bestäubung” value does the source give for `O=C([O-])CCCCSCCCCC(=O)[O-].[Na+].[Na+]` [Beispiel 2, Natriumsalz der δ, δ'-Thiodivaleriansäure] here?
Answer: Its value is 35,3.

Question: What about the “Anzahl von Körnern der Ähre im Isolator” value of the same compound?
Answer: Its value is 0,3.

Question: What about the “Prozentsatz der Sterilität” value of the same compound?
Answer: The value was 99,3%.

Question: And the “Prozentsatz des Ansetzens von Körnern bei freier Bestäubung” value?
Answer: The value was 85,7%.

Question: Which results are given for `O=C(O)CCCCS(=O)(=O)CCCCC(=O)O` [Beispiel 3, δ, δ' -Sulfonyldivaleriansäure]?
Answer: Anzahl von Körnern der Ähre bei freier Bestäubung: 37,2; Anzahl von Körnern der Ähre im Isolator: 0,0; Prozentsatz der Sterilität: 100,0%; Prozentsatz des Ansetzens von Körnern bei freier Bestäubung: 90,3%

Question: `O=C([O-])CCCCS(=O)(=O)CCCCC(=O)[O-].[Na+].[Na+]` [Beispiel 4, Natriumsalz der δ, δ' -Sulfonyldivaleriansäure] was tested. Which “Anzahl von Körnern der Ähre bei freier Bestäubung” value did it give?
Answer: The value was 34,1.

Question: And the “Anzahl von Körnern der Ähre im Isolator” value?
Answer: The value was 0,1.

Question: And the “Prozentsatz der Sterilität” value?
Answer: The value was 99,8%.

Question: And the “Prozentsatz des Ansetzens von Körnern bei freier Bestäubung” value?
Answer: Its value is 82,8%.

Question: With `O=C([O-])CCCCS(=O)(=O)CCCCC(=O)[O-].[K+].[K+]` [Beispiel 5, Kaliumsalz der δ, δ'--Sulfonyldivaleriansäure] as the compound, how does the “Anzahl von Körnern der Ähre bei freier Bestäubung” value read?
Answer: Its value is 40,7.

Question: What about the “Anzahl von Körnern der Ähre im Isolator” value of the same compound?
Answer: Its value is 0,1.

Question: What about the “Prozentsatz der Sterilität” value of the same compound?
Answer: Its value is 99,8%.

Question: What about the “Prozentsatz des Ansetzens von Körnern bei freier Bestäubung” value of the same compound?
Answer: The value was 98,8%.

Question: For `CCCCCCCCCCSCCCCC(=O)O` [Beispiel 7, 4-Karboxybutyldezylsulfid], which “Anzahl von Körnern der Ähre bei freier Bestäubung” value is on record?
Answer: The value was 35,6.

Question: What about the “Anzahl von Körnern der Ähre im Isolator” value of the same compound?
Answer: The value was 0,0.

Question: What about the “Prozentsatz der Sterilität” value of the same compound?
Answer: Its value is 100,0%.

Question: What about the “Prozentsatz des Ansetzens von Körnern bei freier Bestäubung” value of the same compound?
Answer: The value was 86,4%.

Question: What does the source list for `CCCCC(CC)COC(=O)CCCCSCCCCC(=O)OCC(CC)CCCC` (stereo not shown) [Beispiel 8]?
Answer: Anzahl von Körnern der Ähre bei freier Bestäubung: 36,1; Anzahl von Körnern der Ähre im Isolator: 0,0; Prozentsatz der Sterilität: 100,0%; Prozentsatz des Ansetzens von Körnern bei freier Bestäubung: 87,6%

Question: For `O=C(O)CCCCSCCCCC(=O)O` [Beispiel I, δ, δ' -Thiodivaleriansäure], which “Anzahl von Körnern der Ähre bei freier Bestäubung” value is on record?
Answer: Its value is 37,0.

Question: What about the “Anzahl von Körnern der Ähre im Isolator” value of the same compound?
Answer: Its value is 0,5.

Question: What about the “Prozentsatz der Sterilität” value of the same compound?
Answer: Its value is 98,8%.

Question: And the “Prozentsatz des Ansetzens von Körnern bei freier Bestäubung” value?
Answer: Its value is 89,8%.

Question: Which results are given for “Bis(di-n-butyläther) der δ, δ'--Thiodivaleriansäure [Beispiel 6]”?
Answer: Anzahl von Körnern der Ähre bei freier Bestäubung: 34,8; Anzahl von Körnern der Ähre im Isolator: 0,0; Prozentsatz der Sterilität: 100,0%; Prozentsatz des Ansetzens von Körnern bei freier Bestäubung: 84,5%

Test system: diploidem Roggen
Assay: Field test of gametocidal activity (sterilisation of anthers), diploid rye
Assay type: in vivo
Conditions: Sorte Wosohod 2; V. Periode der Organogenese; 1%ige wäßrige Emulsion; 6 kg/ha
Description: as §1, §2, §3, §4, §5
Pflanzen von diploidem Roggen Sorte Wosohod 2 werden in der V. Periode der Organogenese (nach Kupermann) mit 1%iger wäßriger Emulsion von Bis(di-n-butyläther) der δ, δ' -Thiodivaleriansäure, 4-Krboxybutyldezylsulfid, Natriumsalz der δ, δ' -Thiodivaleriansäure, Bis(2-äthylhexyläther) der δ, δ' -Thiodivaleriansäure, δ, δ' -Sulfonyldivaleriansäure, Natriumsalz der δ, δ'-Sulfonyldivaleriansäure, Kaliumsalz der δ, δ' -Sulfonyldivaleriansäure behandelt. Die Emulsion enthält 0,1 Masse% […] mit 12 bis 14 Kohlenstoffatomen und 0,01 Masse% Tetrahydrofuran. Der Verbrauch an Präparat beträgt 6 kg/ha. Als Kontrolle dienen Pflanzen, behandelt mit einem Verdünner ohne Sterilisationsmittel.
Pflanzen von diploidem Roggen Sorte Gibrid 1861/79 werden in der V. und VI. Periode der Organogenese (nach Kupermann) mit 1%iger wäßriger Emulsion von Bis(di-n-butyläther) der δ, δ' -Thiodivaleriansäure, δ, δ' -Thiodivaleriansäure, Natriumsalz der δ δ' -Thiodivaleriansäure, 4-Karboxybutyldezylsulfid, δ , δ' -Sulfonyldivaleriansäure, Kaliumsalz der δ, δ' -Sulfonyldivaleriansäuleriansäure, Kaliumalz der δ' -Sulfonyldivaleriansäure, Bis(2-äthylhexyläther) der δ, δ' -Thiodivaleriansäure behandelt. Die Emulsion enthält 0,1 Masse% Kalziumalkylbenzolsulfonat mit 12 bis 14 Kohlenstoffatomen und 0,01 Masse% Dimethylformamid. Der Verbrauch an Präparat beträgt 8 kg/ha. Als Kontrolle dienen Pflanzen, behandelt mit einem Verdünner ohne Sterilisationsmittel. Die Prüfergebnisse sind in der Tabelle 10 angegeben.

Question: Which “Anzahl von Körnern der Ähre bei freier Bestäubung” value does the source give for `CCCCOC(=O)CCCCSCCCCC(=O)OCCCC` [Beispiel 37, Bis(di-n-butyläther) der δ, δ' -Thiodivaleriansäure] here?
Answer: The value was 50,9.

Question: What about the “Anzahl von Körnern der Ähre im Isolator” value of the same compound?
Answer: Its value is 0,0.

Question: What about the “Prozentsatz der Sterilität” value of the same compound?
Answer: The value was 100,0%.

Question: What about the “Prozentsatz des Ansetzens von Körnern bei freier Bestäubung” value of the same compound?
Answer: Its value is 93,2%.

Question: Which results are given for `CCCCCCCCCCSCCCCC(=O)O` [Beispiel 38, 4-Krboxybutyldezylsulfid]?
Answer: Anzahl von Körnern der Ähre bei freier Bestäubung: 50,5; Anzahl von Körnern der Ähre im Isolator: 0,0; Prozentsatz der Sterilität: 100,0%; Prozentsatz des Ansetzens von Körnern bei freier Bestäubung: 92,5%

Question: What does the source list for `O=C(O)CCCCSCCCCC(=O)O` [Beispiel 39, Natriumsalz der δ, δ' -Thiodivaleriansäure]?
Answer: Anzahl von Körnern der Ähre bei freier Bestäubung: 50,5; Anzahl von Körnern der Ähre im Isolator: 0,1; Prozentsatz der Sterilität: 99,8%; Prozentsatz des Ansetzens von Körnern bei freier Bestäubung: 92,5%

Question: Which results are given for `CCCCC(CC)COC(=O)CCCCSCCCCC(=O)OCC(CC)CCCC` (stereo not shown) [Beispiel 40, Bis(2-äthylhexyläther) der δ, δ' -Thiodivaleriansäure]?
Answer: Anzahl von Körnern der Ähre bei freier Bestäubung: 52,9; Anzahl von Körnern der Ähre im Isolator: 0,0; Prozentsatz der Sterilität: 100,0%; Prozentsatz des Ansetzens von Körnern bei freier Bestäubung: 96,9%

Question: `O=C(O)CCCCS(=O)(=O)CCCCC(=O)O` [Beispiel 41, δ, δ' -Sulfonyldivaleriansäure] was tested. Which “Anzahl von Körnern der Ähre bei freier Bestäubung” value did it give?
Answer: The value was 48,4.

Question: What about the “Anzahl von Körnern der Ähre im Isolator” value of the same compound?
Answer: The value was 0,1.

Question: What about the “Prozentsatz der Sterilität” value of the same compound?
Answer: The value was 99,8%.

Question: And the “Prozentsatz des Ansetzens von Körnern bei freier Bestäubung” value?
Answer: The value was 88,6%.
